Source: patent publication US11385234B2, “Methods and systems for detecting an analyte or classifying a sample” (Commonwealth Scientific and Industrial Research Organisation, priority 2012, dated 2022)

Tests used:
GFP^2—MBP—RLuc2 = GFP^2—MBP—RLuc2 (Escherichia coli, UniProt P0AEX9); assay: BRET^2 tagged MBP sugar assay, plate reader; assay type: binding; settings: 0.1 mM sugar, 30 minutes at 28° C., 1 μM protein
Description: 1 μM purified protein was used for all the energy transfer assays (final volume of 100 μL). […] Purified protein was incubated with the sugar dissolved in double deionised water or water for 30 minutes at 28° C.
BRET ratios were calculated as the ratio of maximum acceptor emission intensity to maximum donor emission intensity.
All data analysis was carried out using GraphPad Prism (version 5 for Windows, Graphpad Software, San Diego, Calif., USA). All data will be reported as means± standard deviation (SD) unless otherwise stated in the text. Two-tailed unpaired t-tests will be performed using Graphpad prism. Statistical significance is defined as p<0.05.

[1] = target: GMR sensor (GFP^2—MBP—RLUC2) (Escherichia coli, UniProt P0AEX9); settings: 0.1 mM sugar
Description: On-chip measurements were carried out with microfluidic mixers with two inlets, a passive micromixer and an integrated optical detection chamber. BRET^2 measurements were recorded by using two photo multiplier tubes one equipped with an RLuc/Clz400a emission filter (410 nm bandpass 80 nm) and the other with a GFP^2 emission filter (515 nm bandpass 30m). The optical emission was collected by using an optical fiber with 1 mm core diameter aligned with on-chip optical detection chamber through a dichroic mirror.
The preparation was then mixed on-chip with 5 μM coelenterazine 400a and the optical signal was recorded from the detection chamber. The control experiments was carried out by incubating protein preparations with water and mixing on the chip under the same conditions.
Sensitivity assays were carried out on a two input microfluidic mixing device (FIG. 8b) with a serpentine common channel of L=18 mm. The BRET reaction chamber was Ø=4 mm and H=1 mm with no mirror. A bifurcated light guide was used with a 6 mm trunk and NA=0.59. […] The incubated sample and 31.25 μM Clz400a substrate were each pumped onto the chip at input flow rates of 400 μl/hr. The trunk end of the light guide was used to collect signal from the BRET reaction chamber. […] The BRET^2 signal was measured at each concentration. […]

thrombin = target: T1, thrombin (Bos taurus, UniProt P00735); assay: Hirudin pre-incubation in thrombin cleavage assay of GFP^2-RG-RLuc (BRET^H ratio, SDS-PAGE); assay type: biochemical
T1 construct: purchased Amersham Biosciences
Description: Various concentrations of thrombin were added to purified GFP^2-RG-RLuc biosensor and incubated at 30° C. for 90 minutes. To measure the extent of thrombin cleavage the sample mixture following incubation and the native CLZ solution were pumped from separate syringes into the two inlet channels and allowed to flow through the main channel. Diffusion between the two streams induced a BRET reaction at the interface. Recombinant hirudin from yeast (Sigma) was incubated with thrombin at room temperature for ten minutes prior to the protease assay.
To confirm complete thrombin cleavage of the GFP^2-RG-RLuc biosensor, SDS-PAGE analysis was carried out. Proteins (2.5 μg) were diluted in 1× sample loading buffer (Invitrogen) for SDS-gel electrophoresis in a 12% Bis-Tris gel with MOPS running buffer (NuPAGE, Invitrogen). Bands were stained with Fast Stain™ (Fisher) and then visualised.
Using the microplate spectrometer, hybrid BRET ratios were calculated as the ratio of bioluminescence emissions measured at 500 nm and 470 nm. Using the microchip system, the hybrid BRET ratio was calculated as ratio of the long wavelength emission (515 nm-555 nm) to the short wavelength emission (430 nm-455 nm) (Pfleger and Eidne, 2006). To allow comparison between the two different detection systems, the Hybrid BRET ratios were normalized by expressing them as a multiple of the BRET ratio without added thrombin, in the same measurement system. All data are reported as means±standard deviation (SD). Two-tailed unpaired t-tests were performed using Graphpad prism (version 5.00 for Windows, Graphpad Software, San Diego, Calif., USA). Statistical significance is defined as p<0.05.

O=C(CO)[C@@H](O)[C@H](O)[C@H](O)CO [fructose]
response of BRET biosensor to sugar (GFP^2—MBP—RLuc2): did not respond

OC[C@H]1O[C@H](OC[C@H]2O[C@H](O[C@]3(CO)O[C@H](CO)[C@@H](O)[C@@H]3O)[C@H](O)[C@@H](O)[C@@H]2O)[C@H](O)[C@@H](O)[C@H]1O [raffinose]
response of BRET biosensor to sugar (GFP^2—MBP—RLuc2): did not respond

OC[C@H]1O[C@@](CO)(O[C@H]2O[C@H](CO)[C@@H](O)[C@H](O)[C@H]2O)[C@@H](O)[C@@H]1O [sucrose]
increase in BRET^2 ratio over no sugar control, on chip [1]: 15% | response of BRET biosensor to sugar (GFP^2—MBP—RLuc2): did not respond

hirudin
BRET^H ratio with pre-addition of hirudin (thrombin; 54 nM thrombin pre-treated with 2 units hirudin, 10 minutes, room temperature): 1.08±0.14 | effect of hirudin on thrombin induced reduction in BRET^H ratio (thrombin; 2 units hirudin, 10 minutes, room temperature): prevented the thrombin induced reduction | effect of hirudin on cleavage of fusion protein, SDS-PAGE (thrombin; 2 units hirudin, SDS-PAGE lane 6): inhibited the formation of the two components

maltotriose
amplitude of the change in BRET ratio (GFP^2—MBP—RLuc2): 17.03%
